Assay: xn = mol fraction of the nth substance listed
Conditions: 101 kPa, Liquid; for speed of sound: Linear variable-path acoustic interferometer; for mass density: Vibrating tube method; for viscosity: dual vibrating plate viscometer, AandD Co. Ltd Model SV-10

CC[NH2+]CC.O=S(=O)([O-])O [diethylammonium hydrogen sulfate] + CN1CCCC1=O
Conditions | mass density [kg/m3] | speed of sound [m/s] | viscosity [mPa·s]
298.15 K, x1 = 0.016 | 1050.6 | 1559 | 2.45
298.15 K, x1 = 0.0347 | 1067.85 | 1555 | 3.33
298.15 K, x1 = 0.092 | 1113.77 | 1539 | 9.94
298.15 K, x1 = 0.1316 | 1140.71 | 1534 | 15.78
298.15 K, x1 = 0.1916 | 1176.12 | 1529 | 27.2
298.15 K, x1 = 0.2992 | 1222.46 | 1518 | 49.04
298.15 K, x1 = 0.3455 | 1237.11 | 1513 | 59.35
298.15 K, x1 = 0.4175 | 1253.31 | 1508 | 73.04
298.15 K, x1 = 0.5442 | 1269.42 | 1495 | 92.75
298.15 K, x1 = 0.6829 | 1275.63 | 1481 | 101.4
298.15 K, x1 = 0.8359 | 1277.72 | 1458 | 87.14
298.15 K, x1 = 0.9342 | 1282.39 | 1440 | 58.7
298.15 K, x1 = 0.9684 | 1281.99 | 1434 | 46.45
298.15 K, x1 = 1 | 1283.95 | 1432 | 34.1
303.15 K, x1 = 0.016 | 1037.47 | 1551 | –
303.15 K, x1 = 0.0347 | 1054.26 | 1547 | 0.95
303.15 K, x1 = 0.092 | 1095.4 | 1536 | 7.28
303.15 K, x1 = 0.1316 | 1122.07 | 1529 | 12.27
303.15 K, x1 = 0.1916 | 1155.56 | 1523 | 21.6
303.15 K, x1 = 0.2992 | 1196 | 1515 | 37.85
303.15 K, x1 = 0.3455 | 1207.13 | 1510 | 45.88
303.15 K, x1 = 0.4175 | 1219.69 | 1505 | 56.62
303.15 K, x1 = 0.5442 | 1228.51 | 1491 | 72.49
303.15 K, x1 = 0.6829 | 1229.8 | 1474 | 79.75
303.15 K, x1 = 0.8359 | 1232.02 | 1446 | 69.13
303.15 K, x1 = 0.9342 | 1235.49 | 1423 | 48.37
303.15 K, x1 = 0.9684 | 1237.36 | 1415 | 35.95
303.15 K, x1 = 1 | 1239.74 | 1408 | 28.9
308.15 K, x1 = 0.016 | 1030.03 | 1533 | –
308.15 K, x1 = 0.0347 | 1043.78 | 1530 | 0.67
308.15 K, x1 = 0.092 | 1080.92 | 1521 | 4.42
308.15 K, x1 = 0.1316 | 1103.13 | 1518 | 9.53
308.15 K, x1 = 0.1916 | 1133.63 | 1511 | 17.3
308.15 K, x1 = 0.2992 | 1169.38 | 1503 | 30.7
308.15 K, x1 = 0.3455 | 1179.79 | 1500 | 36.84
308.15 K, x1 = 0.4175 | 1190.23 | 1496 | 45.89
308.15 K, x1 = 0.5442 | 1198.01 | 1485 | 57.51
308.15 K, x1 = 0.6829 | 1198.27 | 1468 | 63.11
308.15 K, x1 = 0.8359 | 1198.28 | 1437 | 55.29
308.15 K, x1 = 0.9342 | 1200.49 | 1414 | 37.86
308.15 K, x1 = 0.9684 | 1202.65 | 1404 | 27.69
308.15 K, x1 = 1 | 1205.43 | 1392 | 24.6
313.15 K, x1 = 0.016 | 1020.1 | 1529 | –
313.15 K, x1 = 0.0346 | 1031.41 | 1529 | 0.48
313.15 K, x1 = 0.092 | 1060.41 | 1521 | 2.06
313.15 K, x1 = 0.1316 | 1079.57 | 1516 | 5.97
313.15 K, x1 = 0.1916 | 1100.33 | 1511 | 13.15
313.15 K, x1 = 0.2992 | 1123.81 | 1502 | 24.74
313.15 K, x1 = 0.3455 | 1129.72 | 1498 | 30.42
313.15 K, x1 = 0.4175 | 1134.34 | 1491 | 36.87
313.15 K, x1 = 0.5442 | 1134.82 | 1474 | 46.82
313.15 K, x1 = 0.6829 | 1128.95 | 1450 | 52.39
313.15 K, x1 = 0.8359 | 1123.69 | 1411 | 46.21
313.15 K, x1 = 0.9342 | 1123.28 | 1382 | 30.9
313.15 K, x1 = 0.9684 | 1124.6 | 1370 | 23.03
313.15 K, x1 = 1 | 1126.81 | 1356 | 21.9

CC[NH+](CC)CC.O=S(=O)([O-])O [triethylammonium hydrogen sulfate] + CN1CCCC1=O
Conditions | mass density [kg/m3] | speed of sound [m/s] | viscosity [mPa·s]
298.15 K, x1 = 0.0115 | 1032.8 | 1575 | 3.39
298.15 K, x1 = 0.0234 | 1038.22 | 1585 | 4.63
298.15 K, x1 = 0.0632 | 1050.09 | 1610 | 4.46
298.15 K, x1 = 0.0927 | 1059.1 | 1627 | 4.81
298.15 K, x1 = 0.1387 | 1070.98 | 1658 | 4.99
298.15 K, x1 = 0.2259 | 1088.61 | 1710 | 8.89
298.15 K, x1 = 0.2631 | 1094.64 | 1734 | 19.46
298.15 K, x1 = 0.3261 | 1103.78 | 1770 | 40.98
298.15 K, x1 = 0.4478 | 1116.87 | 1823 | 96.22
298.15 K, x1 = 0.5947 | 1127.01 | 1871 | 163.18
298.15 K, x1 = 0.7717 | 1135 | 1893 | 229.32
298.15 K, x1 = 0.9017 | 1139.74 | 1885 | 245.82
298.15 K, x1 = 0.9497 | 1141.23 | 1879 | 242.86
298.15 K, x1 = 1 | 1142.89 | 1874 | 235
303.15 K, x1 = 0.0115 | 1029.6 | 1559 | 1.09
303.15 K, x1 = 0.0234 | 1033.96 | 1569 | 1.26
303.15 K, x1 = 0.0632 | 1046.49 | 1594 | 1.97
303.15 K, x1 = 0.0927 | 1054.51 | 1613 | 1.09
303.15 K, x1 = 0.1387 | 1066.39 | 1646 | 2.15
303.15 K, x1 = 0.2259 | 1084.19 | 1699 | 4.28
303.15 K, x1 = 0.2631 | 1090.49 | 1724 | 8.71
303.15 K, x1 = 0.3261 | 1099.54 | 1761 | 24.33
303.15 K, x1 = 0.4478 | 1112.6 | 1818 | 66.28
303.15 K, x1 = 0.5947 | 1123.51 | 1867 | 119.65
303.15 K, x1 = 0.7717 | 1132.09 | 1891 | 168.61
303.15 K, x1 = 0.9017 | 1137.34 | 1886 | 175.33
303.15 K, x1 = 0.9497 | 1139.47 | 1881 | 168.86
303.15 K, x1 = 1 | 1141.83 | 1871 | 153
308.15 K, x1 = 0.0115 | 1024.16 | 1541 | 1.08
308.15 K, x1 = 0.0234 | 1028.44 | 1552 | 0.73
308.15 K, x1 = 0.0632 | 1040.72 | 1574 | –
308.15 K, x1 = 0.0927 | 1048.71 | 1595 | –
308.15 K, x1 = 0.1387 | 1060.66 | 1628 | –
308.15 K, x1 = 0.2259 | 1078.74 | 1682 | –
308.15 K, x1 = 0.2631 | 1085.15 | 1707 | 7.75
308.15 K, x1 = 0.3261 | 1094.3 | 1746 | 23.71
308.15 K, x1 = 0.4478 | 1107.95 | 1806 | 66.53
308.15 K, x1 = 0.5947 | 1119.05 | 1862 | 116.6
308.15 K, x1 = 0.7717 | 1128.8 | 1892 | 161.59
308.15 K, x1 = 0.9017 | 1135.26 | 1887 | 165.14
308.15 K, x1 = 0.9497 | 1137.73 | 1880 | 156.95
308.15 K, x1 = 1 | 1140.72 | 1866 | 138
313.15 K, x1 = 0.0115 | 1019.77 | 1535 | 1.97
313.15 K, x1 = 0.0234 | 1023.04 | 1547 | 0.71
313.15 K, x1 = 0.0632 | 1034.66 | 1573 | 0.73
313.15 K, x1 = 0.0927 | 1043.09 | 1592 | 0.2
313.15 K, x1 = 0.1387 | 1055.07 | 1624 | –
313.15 K, x1 = 0.2259 | 1072.51 | 1681 | 1.97
313.15 K, x1 = 0.2631 | 1079.29 | 1706 | 7.8
313.15 K, x1 = 0.3261 | 1088.65 | 1748 | 22.1
313.15 K, x1 = 0.4478 | 1102.48 | 1809 | 60.67
313.15 K, x1 = 0.5947 | 1114.67 | 1865 | 104.9
313.15 K, x1 = 0.7717 | 1125.81 | 1894 | 142.04
313.15 K, x1 = 0.9017 | 1133.51 | 1884 | 141.04
313.15 K, x1 = 0.9497 | 1136.49 | 1878 | 131.02
313.15 K, x1 = 1 | 1140.02 | 1859 | 108

Reference: the NIST ThermoML archive (doi:10.1016/j.jct.2012.03.034)
